The values that follow come from patent US5069895A, “Methods for the treatment of alcohol intoxication and dependence” (priority 1989, dated 1991).

In series [1] the test system is mice. The note with it: cited from earlier work; for effect on symptoms of ethanol intoxication: Dar et al. (1985); for intoxicating effect of ethanol: administration over a 10-day period to mice, Dar and Wooles (1986); for ethanol-induced ataxia: pretreated mice, Dar et al. (1987).
The test system of series [2] is NG108-15 cells. The note with it: 200 mM ethanol, 10 min. The method, then: NG108-15 cells (5×10^6 cells/well) were incubated with 2 ml of PBS in the presence or absence of 200 mM ethanol for 10 min. Fluorescent derivatives of adenosine were prepared (Green (1980) supra.) and injected onto a reverse-phase HPLC column equilibrated with 1.2 mM KPO4, pH 5 and eluted with a 0-60% methanol gradient. Peak areas were compared with those of known amounts of 1,N^6 -ethenoadenosine.

The subject of series [3] is NG108-15 cells. In words: acute effect of ethanol on endogenous cAMP levels. Type of series: cell-based.
Protocol: NG108-15 cells were grown in defined media as described (Gordon et al. (1986) supra.) to a final density of 12-20×10^6 cells per flask. […] Bars represent means ±SEM, n=4-9.
In series [4] the test system is adenosine transport in freshly isolated lymphocytes. Particulars: lymphocytes from alcoholics vs nonalcoholics, 200 mM ethanol 3 min, uptake at 10 seconds.
Protocol: Uptake of [^3 H]-adenosine in freshly isolated lymphocytes from nonalcoholics and actively drinking alcoholics was also measured.
The subject of series [5] is S49 adenosine transport mutant 80-2A6. The method, then: (§1) S49 wild type (WT) and adenosine transport mutants (80-2A6 and 160-D4) were grown in defined media (11, without phytohemagglutinin) with 1 U/ml ADA for at least 2 weeks. They were then grown in the presence or absence of 100 mM ethanol with or without 1.5 U/ml ADA for 48 hours. Accumulation of adenosine over 5 min was determined by incubating 1.0×10^7 cells/ml in sterilized PBS in the absence or presence of 200 mM ethanol. Extracellular adenosine concentrations were determined as in FIG. 2. Accumulation of adenosine over 24 hours in the absence or presence of 100 mM ethanol was determined as described by Green (1980) supra.. Assays for receptor-stimulated cAMP levels were carried out as in FIG. 3. […] Values represent means ±SEM. Number of determinations in indicated in parentheses.

The test system of series [6] is S49 wild type cells. Here is the method:
as §1

The subject of series [7] is S49 adenosine transport mutant 80-2A6. In words: cells. Particulars: 48 h. Here is the method:
as §1

Series [8] deals with S49 adenosine transport mutant 160-D4. The series is described as follows: cells. Particulars: 48 h. The method, then: as §1
In series [9] the test system is cultured lymphocytes. In words: cells. Particulars: for activation at 100000 µM: Homo sapiens, Lymphocyte, 5 min. The method, then: Lymphocytes from alcoholics and nonalcoholics were grown in culture for 6 days, and 100 mM ethanol was added for 24 hours. The cells were washed, preincubated for 5 minutes in the absence of ethanol, and then incubated in the absence and presence of 100 mM ethanol for 5 minutes. Extracellular adenosine was measured by HPLC (n=5-7 for alcoholics and nonalcoholics).

Series [10] relates to S49 wild type cells. The series is described as follows: receptor-stimulated cAMP levels after chronic ethanol. Type of series: cell-based. Particulars: for activity at 100000 µM: wild type, 100 mM EtOH 48 hr. The method, then:
as §1

Series [11] relates to S49 wild type cells. The series is described as follows: agonist stimulation of cAMP levels over basal. Here is the method:
as §1

The subject of series [12] is C1300 neuroblastoma cells. The note with it: endogenously released, overnight culture; cited from earlier work.
Setting [13] is: read-out: cAMP levels, 1 uM PGE1.
Setting [14] is: read-out: cAMP levels, 100 uM PIA.

Where two headings read alike, the source gives them in different places.

As for `Cn1c(=O)c2[nH]cnc2n(C)c1=O` [theophylline], in series [1], the “effect on symptoms of ethanol intoxication” value is “ameliorated certain symptoms of intoxication while having no effect on others”, the “intoxicating effect of ethanol” value is “appeared to have no effect” and the ethanol-induced ataxia entry is on record as “significant potentiation”.
`CCO` [ethanol] showed an extracellular adenosine concentration in [2] of 37±1.2 nM/5×10^6 cells. Further, the activation at 200000 µM in [3] (Homo sapiens, NG108-15, 10 min, 200 mM ethanol, 10 min, no added agonist, read-out: increase in intracellular cAMP concentration) turned out to be 60%. Besides, the “inhibition of adenosine uptake” value in [4] is on record as “less inhibition by ethanol compared to uptake in cells from nonalcoholics”. Moreover, the “extracellular adenosine, EtOH” value in series [5] (80-2A6, 5 min, EtOH 200 mM) amounted to 0 nM/10^7 cells; in [5] (80-2A6, 24 hr, EtOH 100 mM), 0 nM/10^7 cells; in series [6] (5 min, EtOH 200 nM as printed), 17.6 ± 3.6 nM/10^7 cells; in series [6] (24 hr, EtOH 100 nM as printed), 56.7 ± 10.2 nM/10^7 cells. Further, the activity at 100000 µM came to 82 ± 7% in series [7] (setting [13]); 115 ± 11% in series [7] (setting [14]); 98 ± 7% in series [8] (setting [13]); 94 ± 9% in [8] (setting [14]); 36 ± 6% in series [10] (setting [13]); 65 ± 7% in series [10] (setting [14]). Besides, the activation at 100000 µM turned out to be 73% in [9] (read-out: increase in extracellular adenosine on rechallenge, lymphocytes from alcoholics, after chronic ethanol, rechallenge 100 mM ethanol); 37% in series [9] (read-out: increase in extracellular adenosine, lymphocytes from alcoholics, 100 mM ethanol 5 min); 17% in series [9] (read-out: increase in extracellular adenosine, lymphocytes from nonalcoholics, 100 mM ethanol 5 min). Besides, the “increase in extracellular adenosine on rechallenge” value in series [9] (lymphocytes from nonalcoholics, after 100 mM ethanol 24 hours, rechallenge) was “did not increase extracellular adenosine”.
In the case of `CCCCC[C@H](O)/C=C/[C@H]1[C@H](O)CC(=O)[C@@H]1CCCCCCC(=O)O` [PGE1], in [11] (Mus musculus, read-out: increase in cAMP levels over basal), the maximal fold induction was determined as 13.5 ± 3.5.
As to `OC[C@H]1O[C@@H](n2cnc3c(O)ncnc32)[C@H](O)[C@@H]1O` [inosine, reference compound], the “desensitization of the adenosine receptor” value in [10] (S49 wild type cells exposed 48 hr, data not shown) is reported as “did not desensitize the adenosine receptor”.
`OCCN(CCO)c1nc(N2CCCCC2)c2nc(N(CCO)CCO)nc(N3CCCCC3)c2n1` [Dipyridamole]: in [1], the “effect on symptoms of ethanol intoxication” value is listed as “potentiating effect on certain symptoms of ethanol intoxication”.
On to `Nc1ncnc2c1ncn2[C@@H]1O[C@H](CO)[C@@H](O)[C@H]1O` [adenosine], for which the “concentration sufficient to desensitize adenosine receptor-dependent cAMP production” value in series [12] is 10 to 20 nM.
Regarding `CC(C)Cn1c(=O)n(C)c(=O)c2[nH]cnc21` [IBMX, isobutylmethylxanthine], the “effect on ethanol-induced increase in cAMP levels” value in [3] (co-incubation with ethanol 10 min, 1 U/ml ADA or isobutylmethylxanthine) was “completely blocked”. Moreover, in series [1], the “intoxicating effect of ethanol” value is “increased” and the ethanol-induced ataxia result is reported as “significant potentiation”.
For the compound `C[C@H](Cc1ccccc1)Nc1ncnc2c1ncn2[C@@H]1O[C@H](CO)[C@@H](O)[C@H]1O` [PIA], the “increase in cAMP levels over basal” value in series [11] (maximally-effective concentration) came out at 1.92±0.41 fold.
On to `Cn1c(=O)c2c(ncn2C)n(C)c1=O` [caffeine], for which, in series [1], the “intoxicating effect of ethanol” value is given as “increased” and the ethanol-induced ataxia entry is on record as “significant potentiation”.
